Tests used:
Type in all cases: in vivo
[1] = test system: wild pansy (Viola tricolor L; VIOTR); experiment: Postemergence herbicidal activity of mixtures, greenhouse, visual injury vs control; settings: for pest or weed control at 1.25 g/ha: 1.25 g/ha alone
Experimental: (§1) Evaluation of Postemergence Herbicidal Activity of Mixtures in Cereal Crops
(§2) Seeds of the desired test plant species were planted in Sun Gro MetroMix® 306 planting mixture, which typically has a pH of 6.0 to 6.8 and an organic matter content of about 30 percent, in plastic pots with a surface area of 103.2 square centimeters (cm^2). When required to ensure good germination and healthy plants, a fungicide treatment and/or other chemical or physical treatment was applied. The plants were grown for 7-36 days (d) in a greenhouse with an approximate 14 hour (h) photoperiod which was maintained at about 18° C. during the day and 17° C. during the night. Nutrients and water were added on a regular basis and supplemental lighting was provided with overhead metal halide 1000-Watt lamps as necessary. The plants were employed for testing when they reached the second or third true leaf stage.
(§3) Treatments consisted of an insecticidal compound (as listed in Tables 1 through 18) and the cereal herbicide, 4-amino-3-chloro-6-(4-chloro-2-fluoro-3-methoxyphenyl)pyridine-2-carboxylic acid, alone and in combination. Weighed amounts of esters (methyl) or salts (triethylammonium, TEA) of 4-amino-3-chloro-6-(4-chloro-2-fluoro-3-methoxyphenyl)pyridine-2-carboxylic acid (Compound I) were placed in 25 milliliter (mL) glass vials and dissolved in a volume of 97:3 volume per volume (v/v) acetone/dimethyl sulfoxide (DMSO) to obtain 4.5 milligrams active ingredient per mL (mg ai/mL) concentrated solutions. […] The concentrated solutions of Compound I were diluted to 1.5 mg ai/mL with the addition of 2 volumes of an aqueous mixture containing acetone, water, isopropyl alcohol, DMSO, Agri-dex crop oil concentrate, and Triton® X-77 surfactant in a 64.7:26.0:6.7:2.0:0.7:0.01 v/v ratio. A dilution solution was prepared by mixing 1 volume of 97:3 v/v acetone/DMSO and 2 volumes of an aqueous mixture containing acetone, water, isopropyl alcohol, DMSO, Agri-dex crop oil concentrate, and Triton® X-77 surfactant in a 64.7:26.0:6.7:2.0:0.7:0.01 v/v ratio. Compound requirements are based upon a 12 mL application volume at a rate of 187 liters per hectare (L/ha). The concentrated solutions of the cereal insecticides were prepared following the same procedure. Weighed amounts of insecticide were placed in 25 milliliter (mL) glass vials and dissolved in a volume of 97:3 v/v acetone/DMSO to obtain concentrated insecticide solutions. The concentrated solutions of the safener were prepared following the same procedure. Weighed amounts of safener were placed in 25 mL glass vials and dissolved in a volume of 97:3 v/v acetone/DMSO to obtain concentrated safener solutions. The concentrated solutions were diluted to 0.75 mg/mL with an aqueous mixture of 1.5% v/v of Agri-dex crop oil concentrate.
(§4) Spray solutions of the cereal herbicide and the insecticidal compound mixtures were prepared by adding the concentrated solutions to the appropriate amount of dilution solution to form 12 mL spray solution with active ingredients in combinations. Spray solutions of the cereal herbicide, herbicide safener and the insecticidal compound mixtures were prepared by adding the concentrated solutions to the appropriate amount of dilution solution to form 12 mL spray solution with active ingredients in combinations. Formulated compounds were applied to the plant material with an overhead Mandel track sprayer equipped with 8002E nozzles calibrated to deliver 187 L/ha over an application area of 0.503 square meters (m^2) at a spray height of 18 inches […] above average plant canopy. Control plants were sprayed in the same manner with the solvent blank.
(§5) The treated plants and control plants were placed in a greenhouse as described above and watered by sub-irrigation to prevent wash-off of the test compounds. […]

[2] = test system: bird's-eye speedwell (Veronica persica L; VERPE); experiment: as above; settings: for pest or weed control at 1.25 g/ha: 1.25 g/ha alone;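 on all read-outs here: visual score 0 means no injury and 100 means complete kill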
Experimental: as §1, §2, §3, §4, §5

[3] = test system: scented mayweed (Matricaria chamomila L; MATCH); experiment: as above
Experimental: as §1, §2, §3, §4, §5

[4] = test system: Russian thistle (Salsola iberica L; SASKR); experiment: as above; settings: for pest or weed control at 1.25 g/ha: 1.25 g/ha alone
Experimental: as §1, §2, §3, §4, §5

[5] = test system: kochia (Kochia scoparia L; KCHSC); experiment: as above
Experimental: as §1, §2, §3, §4, §5

[6] = test system: barley (Hordeum vulgare L; HORVS); experiment: Postemergence crop injury and safening, greenhouse, visual injury vs control; settings: crop injury
Experimental: as §1, §2, §3, §4, §5

[7] = test system: wheat (Triticum aestivum L; TRZAS); experiment: as above; settings: crop injury
Experimental: as §1, §2, §3, §4, §5

[8] = test system: redroot pigweed (Amaranthus retroflexus L; AMARE); experiment: Postemergence herbicidal activity of mixtures, greenhouse, visual injury vs control; settings: 48 g/ha alone
Experimental: as §1, §2, §3, §4, §5

[9] = test system: Canada thistle (Cirsium arvense L; CIRAR); experiment: as above; settings: 48 g/ha alone
Experimental: as §1, §2, §3, §4, §5

[10] = Viola tricolor, post-emergence, read-out: Ob (observed injury)
[11] = Veronica persica, post-emergence, read-out: Ob (observed injury)
[12] = Salsola tragus, post-emergence, read-out: Ob (observed injury)
[13] = Viola tricolor, post-emergence, 35 g/ha alone, read-out: Ob (observed injury)
[14] = Bassia scoparia, post-emergence, 35 g/ha alone, read-out: Ob (observed injury)
[15] = Veronica persica, post-emergence, 35 g/ha alone, read-out: Ob (observed injury)
[16] = Salsola tragus, post-emergence, 35 g/ha alone, read-out: Ob (observed injury)

Compound: Cc1c(COC(=O)[C@@H]2[C@H](/C=C(\Cl)C(F)(F)F)C2(C)C)cccc1-c1ccccc1 (relative stereo) [Bifenthrin, (2-methyl[1,1′-biphenyl]-3-yl)methyl (1R,3R)-rel-3-[(1Z)-2-chloro-3,3,3-trifluoro-1-propenyl]-2,2-dimethylcyclopropanecarboxylate, reference compound]
- pest or weed control at 1.6 g/ha ([1]; Viola tricolor, post-emergence, 1.6 g/ha alone, read-out: Ob (observed injury)): 0%
- pest or weed control at 1.6 g/ha ([2]; Veronica persica, post-emergence, 1.6 g/ha alone, read-out: Ob (observed injury)): 0%
- pest or weed control at 1.6 g/ha ([3]; Matricaria, post-emergence, 1.6 g/ha alone, read-out: Ob (observed injury)): 0%
- pest or weed control at 1.6 g/ha ([4]; Salsola tragus, post-emergence, 1.6 g/ha alone, read-out: Ob (observed injury)): 0%

Compound: CC1(C)[C@H](/C=C(\Cl)C(F)(F)F)[C@@H]1C(=O)O[C@@H](C#N)c1cccc(Oc2ccccc2)c1 (relative stereo) [λ-Cyhalothrin, (R)-cyano(3-phenoxyphenyl)methyl (1S,3S)-rel-3-[(1Z)-2-chloro-3,3,3-trifluoro-1-propenyl]-2,2-dimethylcyclopropanecarboxylate]
- pest or weed control at 1.25 g/ha [1, 10]: 0%
- pest or weed control at 1.25 g/ha [2, 11]: 0%
- pest or weed control at 1.25 g/ha [4, 12]: 0%

Compound: CCOP(=S)(OCC)Oc1nc(Cl)c(Cl)cc1Cl [Chlorpyrifos, O,O-diethyl O-(3,5,6-trichloro-2-pyridinyl) phosphorothioate, reference compound]
- pest or weed control at 60 g/ha ([1]; Viola tricolor, post-emergence, 60 g/ha alone, read-out: Ob (observed injury)): 0%
- pest or weed control at 60 g/ha ([5]; Bassia scoparia, post-emergence, 60 g/ha alone, read-out: Ob (observed injury)): 0%
- pest or weed control at 60 g/ha ([2]; Veronica persica, post-emergence, 60 g/ha alone, read-out: Ob (observed injury)): 0%
- pest or weed control at 60 g/ha ([3]; Matricaria, post-emergence, 60 g/ha alone, read-out: Ob (observed injury)): 0%
- pest or weed control at 60 g/ha ([4]; Salsola tragus, post-emergence, 60 g/ha alone, read-out: Ob (observed injury)): 0%

Compound: COc1c(Cl)ccc(-c2cc(N)c(Cl)c(C(=O)O)n2)c1F [Compound I Acid, 4-Amino-3-chloro-6-(4-chloro-2-fluoro-3-methoxyphenyl)pyridine-2-carboxylic acid]
- Ob (observed injury) ([6]; 35 g/ha alone): 15%
- Ob (observed injury) ([7]; 35 g/ha alone): 22%
- pest or weed control at 35 g/ha [1, 13]: 60%
- pest or weed control at 35 g/ha [5, 14]: 98%
- pest or weed control at 35 g/ha [2, 15]: 72%
- pest or weed control at 35 g/ha [4, 16]: 89%

Compound: CCN(CC)CC.COc1c(Cl)ccc(-c2cc(N)c(Cl)c(C(=O)O)n2)c1F [Compound I TEA salt]
- Ob (observed injury) ([1]; 8.75 g/ha alone): 23%
- Ob (observed injury) ([1]; 17.5 g/ha alone): 40%
- Ob (observed injury) ([1]; 35 g/ha alone): 47%
- Ob (observed injury) ([5]; 8.75 g/ha alone): 40%
- Ob (observed injury) ([5]; 17.5 g/ha alone): 55%
- Ob (observed injury) ([5]; 35 g/ha alone): 65%
- Ob (observed injury) ([2]; 8.75 g/ha alone): 10%
- Ob (observed injury) ([2]; 17.5 g/ha alone): 40%
- Ob (observed injury) ([2]; 35 g/ha alone): 70%
- Ob (observed injury) ([3]; 8.75 g/ha alone): 40%
- Ob (observed injury) ([3]; 17.5 g/ha alone): 67%
- Ob (observed injury) ([3]; 35 g/ha alone): 73%
- Ob (observed injury) ([4]; 8.75 g/ha alone): 80%
- Ob (observed injury) ([4]; 17.5 g/ha alone): 84%
- Ob (observed injury) ([4]; 35 g/ha alone): 86%

Compound: CC1(C)C(C=C(Cl)Cl)C1C(=O)OC(C#N)c1ccc(F)c(Oc2ccccc2)c1 (stereo not drawn) [Cyfluthrin, cyano(4-fluoro-3-phenoxyphenyl)methyl 3-(2,2-dichloroethenyl)-2,2-dimethylcyclopropanecarboxylate, reference compound]
- pest or weed control at 3.75 g/ha ([1]; Viola tricolor, post-emergence, 3.75 g/ha alone, read-out: Ob (observed injury)): 0%
- pest or weed control at 3.75 g/ha ([5]; Bassia scoparia, post-emergence, 3.75 g/ha alone, read-out: Ob (observed injury)): 0%
- pest or weed control at 3.75 g/ha ([3]; Matricaria, post-emergence, 3.75 g/ha alone, read-out: Ob (observed injury)): 0%
- pest or weed control at 3.75 g/ha ([4]; Salsola tragus, post-emergence, 3.75 g/ha alone, read-out: Ob (observed injury)): 0%

Compound: CC1(C)[C@H](C(=O)O[C@H](C#N)c2cccc(Oc3ccccc3)c2)[C@@H]1C=C(Br)Br [Deltamethrin, (S)-cyano(3-phenoxyphenyl)methyl (1R,3R)-3-(2,2-dibromoethenyl)-2,2-dimethylcyclopropanecarboxylate, reference compound]
- pest or weed control at 1.25 g/ha [1, 10]: 0%
- pest or weed control at 1.25 g/ha ([5]; Bassia scoparia, post-emergence, 1.25 g/ha alone, read-out: Ob (observed injury)): 0%
- pest or weed control at 1.25 g/ha [2, 11]: 0%
- pest or weed control at 1.25 g/ha ([3]; Matricaria, post-emergence, 1.25 g/ha alone, read-out: Ob (observed injury)): 0%
- pest or weed control at 1.25 g/ha [4, 12]: 0%

Compound: CNC(=O)CSP(=S)(OC)OC [Dimethoate, O,O-dimethyl S-[2-(methylamino)-2-oxoethyl]phosphorodithioate, reference compound]
- pest or weed control at 170 g/ha ([1]; Viola tricolor, post-emergence, 170 g/ha alone, read-out: Ob (observed injury)): 0%
- pest or weed control at 170 g/ha ([5]; Bassia scoparia, post-emergence, 170 g/ha alone, read-out: Ob (observed injury)): 0%
- pest or weed control at 170 g/ha ([2]; Veronica persica, post-emergence, 170 g/ha alone, read-out: Ob (observed injury)): 0%
- pest or weed control at 170 g/ha ([4]; Salsola tragus, post-emergence, 170 g/ha alone, read-out: Ob (observed injury)): 0%

Compound: N#CCNC(=O)c1cnccc1C(F)(F)F [Flonicamid, N-(cyanomethyl)-4-(trifluoromethyl)-3-pyridinecarboxamide]
- pest or weed control at 17.5 g/ha ([1]; Viola tricolor, post-emergence, 17.5 g/ha alone, read-out: Ob (observed injury)): 0%
- pest or weed control at 17.5 g/ha ([3]; Matricaria, post-emergence, 17.5 g/ha alone, read-out: Ob (observed injury)): 0%
- pest or weed control at 17.5 g/ha ([4]; Salsola tragus, post-emergence, 17.5 g/ha alone, read-out: Ob (observed injury)): 0%

Compound: CCOC(=O)CC(SP(=S)(OC)OC)C(=O)OCC (stereo not drawn) [Malathion, diethyl[(dimethoxythiophosphinothioyl)thio]butanedioate, reference compound]
- Ob (observed injury) ([6]; 280 g/ha alone): 0%
- Ob (observed injury) ([6]; 1120 g/ha alone): 0%
- Ob (observed injury) ([7]; 280 g/ha alone): 0%
- Ob (observed injury) ([7]; 1120 g/ha alone): 0%
- pest or weed control at 280 g/ha ([1]; Viola tricolor, post-emergence, 280 g/ha alone, read-out: Ob (observed injury)): 0%
- pest or weed control at 1120 g/ha ([1]; Viola tricolor, post-emergence, 1120 g/ha alone, read-out: Ob (observed injury)): 0%
- pest or weed control at 280 g/ha ([5]; Bassia scoparia, post-emergence, 280 g/ha alone, read-out: Ob (observed injury)): 0%
- pest or weed control at 280 g/ha ([3]; Matricaria, post-emergence, 280 g/ha alone, read-out: Ob (observed injury)): 0%
- pest or weed control at 280 g/ha ([4]; Salsola tragus, post-emergence, 280 g/ha alone, read-out: Ob (observed injury)): 0%

Compound: Cc1nc(N(C)C)nc(OC(=O)N(C)C)c1C [Pirimicarb, 2-(dimethylamino)-5,6-dimethyl-4-pyrimidinyl dimethylcarbamate, reference compound]
- pest or weed control at 35 g/ha [1, 13]: 0%
- pest or weed control at 35 g/ha [5, 14]: 0%
- pest or weed control at 35 g/ha [2, 15]: 0%
- pest or weed control at 35 g/ha ([3]; Matricaria, post-emergence, 35 g/ha alone, read-out: Ob (observed injury)): 0%
- pest or weed control at 35 g/ha [4, 16]: 0%

Compound: CC(C)[C@@H](Nc1ccc(C(F)(F)F)cc1Cl)C(=O)OC(C#N)c1cccc(Oc2ccccc2)c1 (stereo partly drawn) [Tau-fluvalinate, cyano(3-phenoxyphenyl)methyl N-[2-chloro-4-(trifluoromethyl)phenyl]-D-valinate, reference compound]
- pest or weed control at 48 g/ha ([1]; Viola tricolor, post-emergence, 48 g/ha alone, read-out: Ob (observed injury)): 0%
- Ob (observed injury) [8]: 0%
- Ob (observed injury) [9]: 0%
